One assay deals with Wnt pathway. As to the kind of experiment: Wnt activity reporter assay (SP5 promoter-luciferase in SW480 cells). Conditions: Homo sapiens, SP5 promoter firefly luciferase reporter, read-out: Wnt inhibition. Format: cell-based. The procedure, abridged:
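SW480 cells stably carrying an SP5 promoter (eight TCF/LEF sites)-firefly luciferase reporter were seeded at ~10,000 per well and given half-log compound dilutions from a 10 µM top concentration.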
A general note: Reporter assays use an easily measured gene product as a stand-in for the process of interest.

Another assay deals with β-catenin. The assay is described as follows: NL-20 β-catenin reporter assay (primary screening assay for IPF). Format: cell-based. Conditions: NL20; transformed human bronchial epithelial cell line NL-20. An excerpt:
Compounds of Formulas (I) or (II) were screened in a β-catenin-based reporter assay in a transformed human bronchial epithelial cell line (NL-20).

As to `CN(C)c1cncc(-c2cnc3[nH]nc(-c4nc5c(-c6cccc(F)c6)cncc5[nH]4)c3c2)c1` [Compound 7, 5-(3-(7-(3-Fluorophenyl)-3H-imidazo[4,5-c]pyridin-2-yl)-1H-pyrazolo[3,4-b]pyridin-5-yl)-N,N-dimethylpyridin-3-amine], the IC50 in the assay on Wnt pathway came out at 0.006 µM; in the assay on β-catenin it was 1.9 µM.

Turning to `CC(C)Nc1cncc(-c2cnc3[nH]nc(-c4nc5c(-c6cccc(F)c6)cncc5[nH]4)c3c2)c1` [Compound 9, 5-(3-(7-(3-Fluorophenyl)-3H-imidazo[4,5-c]pyridin-2-yl)-1H-pyrazolo[3,4-b]pyridin-5-yl)-N-isopropylpyridin-3-amine], the IC50 with Wnt pathway is 0.0012 µM; in the assay with β-catenin it was 0.067 µM.

Regarding `CN1CCN(Cc2cc(F)cc(-c3cncc4[nH]c(-c5n[nH]c6ncc(-c7cccnc7)cc56)nc34)c2)CC1` [Compound 10, 3-(7-(3-Fluoro-5-((4-methylpiperazin-1-yl)methyl)phenyl)-3H-imidazo[4,5-c]pyridin-2-yl)-5-(pyridin-3-yl)-1H-pyrazolo[3,4-b]pyridine], the IC50 came to 0.263 µM in the assay on Wnt pathway and 0.247 µM in the assay with β-catenin.

Take `CN1CCN(c2cc(F)cc(-c3cncc4[nH]c(-c5n[nH]c6ncc(-c7cccnc7)cc56)nc34)c2)CC1` [Compound 11, 3-(7-(3-Fluoro-5-(4-methylpiperazin-1-yl)phenyl)-3H-imidazo[4,5-c]pyridin-2-yl)-5-(pyridin-3-yl)-1H-pyrazolo[3,4-b]pyridine]: the IC50 with Wnt pathway came to 0.099 µM; in the assay on β-catenin it was 0.21 µM.

On to `CN(C)CCNc1cc(F)cc(-c2cncc3[nH]c(-c4n[nH]c5ncc(-c6cccnc6)cc45)nc23)c1` [Compound 12, N1-(3-Fluoro-5-(2-(5-(pyridin-3-yl)-1H-pyrazolo[3,4-b]pyridin-3-yl)-3H-imidazo[4,5-c]pyridin-7-yl)phenyl)-N2,N2-dimethylethane-1,2-diamine], for which the IC50 in the assay with Wnt pathway came out at 0.021 µM; in the assay with β-catenin it was 0.31 µM.

For `CN(C)Cc1cc(F)cc(-c2cncc3[nH]c(-c4n[nH]c5ncc(-c6cccnc6)cc45)nc23)c1` [Compound 14, 1-(3-Fluoro-5-(2-(5-(pyridin-3-yl)-1H-pyrazolo[3,4-b]pyridin-3-yl)-3H-imidazo[4,5-c]pyridin-7-yl)phenyl)-N,N-dimethylmethanamine], the IC50 with Wnt pathway was determined as 0.138 µM; in the assay with β-catenin, 2.03 µM.

On to `CN(C)Cc1cncc(-c2cnc3[nH]nc(-c4nc5c(-c6cccc(F)c6)cncc5[nH]4)c3c2)c1` [Compound 18, 1-(5-(3-(7-(3-Fluorophenyl)-3H-imidazo[4,5-c]pyridin-2-yl)-1H-pyrazolo[3,4-b]pyridin-5-yl)pyridin-3-yl)-N,N-dimethylmethanamine], for which the IC50 is 0.013 µM with Wnt pathway and 0.44 µM with β-catenin.

As for `CN(C)Cc1cncc(-c2cnc3[nH]nc(-c4nc5c(-c6cccs6)cncc5[nH]4)c3c2)c1` [Compound 452, N,N-Dimethyl-1-(5-(3-(7-(thiophen-2-yl)-3H-imidazo[4,5-c]pyridin-2-yl)-1H-pyrazolo[3,4-b]pyridin-5-yl)pyridin-3-yl)methanamine], the values for the IC50 with Wnt pathway and in the assay on β-catenin were 0.048 µM and 1.09 µM, respectively.
